The text below walks through data of patent EP0119446A2, “Growth promoting aminophenylethyl amine derivatives” (BAYER AG, priority 1983, dated 1984).

This assay concerns Ratten, weiblich. As to the kind of experiment: Feeding trial in rats (feed intake, weight gain, feed conversion). Type of assay: in vivo, Ratten (SPF Wistar). The settings on record: n = 6. From the text: Die Tiere wurden 2 Tage an die neuen Haltungsbedingungen adaptiert, wobei generell das Versuchsfutter ohne Wirkstoffzusatz verabreicht wurde. Am dritten Versuchstag wurden die Tiere randomisiert und anschließend die Versuchsgruppen so gebildet, daß sowohl die Mittelwerte als auch die Streuungen in den Körpergewichten zwischen den Gruppen gleich waren. Nach einer 5-tägigen Vorperiode wurde eine 8-tägige Hauptperiode durchgeführt, in denen Futteraufnahme, Zuwachs und Futterverwertung bestimmt wurden.
Es wurden folgende Behandlungen geprüft: • b 1) Negativkontrolle (n = 12) • b 2) 25 ppm (Wirkstoff Beispiel 12) (n = 6)
Die Tiere wurden 2 Tage an die neuen Haltungsbedingungen adaptiert, wobei generell das Versuchsfutter ohne Wirkstoffzusatz verabreicht wurde. Am dritten Versuchstag wurden die Tiere randomisiert und anschließend die Versuchsgruppen so gebildet, daß sowohl die Mittelwerte als auch die Streuungen in den Körpergewichten zwischen den Gruppen gleich waren. Nach einer 5-tägigen Vorperiode wurde eine 7-tägige Hauptperiode durchgeführt, in denen Futteraufnahme, Zuwachs und Futterverwertung bestimmt wurden.
Es wurden folgende Behandlungen geprüft: • b 1) Negativkontrolle (n = 12) • b 2) 0,2 ppm (Wirkstoff Beispiel 12) (n = 6) • b 3) 10 ppm (Wirkstoff Beispiel 12) (n = 6)
Es wurden folgende Behandlungen geprüft: • b 1) Negativkontrolle (n = 12) • b 2) 25 ppm (Wirkstoff Beispiel 2) (n = 6)
Die Tiere wurden 2 Tage an die neuen Haltungsbedingungen adaptiert, wobei generell das Versuchsfutter ohne Wirkstoffzusatz verabreicht wurde. Am dritten Versuchstag wurden die Tiere randomisiert und anschließend die Versuchsgruppen so gebildet, daß sowohl die Mittelwerte als auch die Streuungen in den Körpergewichten zwischen den Gruppen gleich waren. Nach einer 7-tägigen Vorperiode wurde eine 7-tägige Hauptperiode durchgeführt, in denen Futteraufnahme, Zuwachs und Futterverwertung bestimmt wurden.
Es wurden folgende Behandlungen geprüft: • b 1) Negativkontrolle (n = 24) • b 2) 25 ppm (Wirkstoff Beispiel 2) (n = 6)
Es wurden folgende Behandlungen geprüft: • b 1) Negativkontrolle (n = 12) • b 2) 0,2 ppm (Wirkstoff Beispiel 1) (n = 6) • b 3) 10 ppm (Wirkstoff Beispiel 1) (n = 6)

[1] abbreviates: 25 ppm in feed, whole test period 13 Tage (5-day pre-period + 8-day main period), negative control 174.
[2] abbreviates: 25 ppm in feed, whole test period 13 Tage, negative control 5,06.
The mark [3] stands for this setting: 25 ppm in feed, whole test period 13 Tage, negative control 35,4.
Setting [4] is: 0,2 ppm in feed, whole test period 12 Tage (5-day pre-period + 7-day main period), negative control 200.
Setting [5] is: 0,2 ppm in feed, whole test period 12 Tage, negative control 4,88.
The mark [6] stands for this setting: 0,2 ppm in feed, whole test period 12 Tage, negative control 41,0.
Where [7] appears, read: 10 ppm in feed, whole test period 12 Tage (5-day pre-period + 7-day main period), negative control 200.
Where [8] appears, read: 10 ppm in feed, whole test period 12 Tage, negative control 4,88.
Where [9] appears, read: 10 ppm in feed, whole test period 12 Tage, negative control 41,0.

Take `Cc1cc(NCC(O)c2cc(Cl)c(N)c(Cl)c2)ccc1Oc1ccc(S(=O)(=O)C(F)(F)F)cc1` (stereo not drawn) [Bsp. 2]: the Futter-aufnahme by setting is: under setting [1], 180 g; (25 ppm in feed, whole test period 14 Tage (7-day pre-period + 7-day main period), negative control 225) 233 g. Besides, the Futter-verwer-tung under setting [2] was 4,85 g/g and the Futter-verwer-tung (25 ppm in feed, whole test period 14 Tage, negative control 5,30) is given as 4,88 g/g. Moreover, the Zuwachs is, setting by setting: under setting [3], 37,5 g; (25 ppm in feed, whole test period 14 Tage, negative control 40,6) 47,8 g.
As to `Cc1cc(NCC(O)c2cc(Cl)c(N)c(Cl)c2)ccc1Oc1ccc(SC(F)(F)F)cc1` (stereo not drawn) [Bsp. 1], the Futter-aufnahme is given as 204 g under setting [4], 206 g under setting [7] and 184 g under setting [1]. Also, the Futter-verwer-tung is, setting by setting: under setting [5], 4,25 g/g; under setting [8], 4,46 g/g; under setting [2], 4,23 g/g. In addition, the Zuwachs by setting is: under setting [6], 47,9 g; under setting [9], 46,2 g; under setting [3], 43,9 g.
For `CC(C)C(C)[Si](C)(C)OC(CN(C(C)(C)C)[Si](C)(C)C(C)C(C)C)c1cc(Cl)c(N)c(Cl)c1` (stereo not drawn) [Bsp. 12], the Futter-aufnahme by setting is: under setting [4], 217 g; under setting [7], 204 g; under setting [1], 193 g. Further, the Futter-verwer-tung is recorded as 4,13 g/g under setting [5], 4,03 g/g under setting [8] and 3,77 g/g under setting [2]. The Zuwachs runs as follows: under setting [6], 52,5 g; under setting [9], 50,7 g; under setting [3], 51,9 g.
